From PMC6429214, “Design, Synthesis and Biological Evaluation of Isoxazole-Based CK1 Inhibitors Modified with Chiral Pyrrolidine Scaffolds” (Molecules, 2019)

Columns and labels:
Test in all cases: 33PanQinase panel
Type in all cases: biochemical
ACV-R1B = target: T1, ACV-R1B (Homo sapiens, UniProt P36896); details: read-out: Residual Activity (%)
T1 construct: purchased ProQinase
Method in brief: (§1)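 Single-point screen at 1 µM in a 320 wild-type kinase panel using activity-based radiometric 33P assay; final DMSO 1%. Values are percent residual kinase activity relative to DMSO control.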

CDC42BPA = target: T2, CDC42BPA (Homo sapiens, UniProt Q5VT25); details: read-out: Residual Activity (%)
T2 construct: purchased ProQinase
Method in brief: as §1

CDK1/CycB1 = target: T3, CDK1/CycB1 (Homo sapiens, UniProt P06493); details: CDK1/CycB1, 1 µM; read-out: Residual Activity (%)
T3 construct: purchased ProQinase
T3 sequence (P06493 whole entry): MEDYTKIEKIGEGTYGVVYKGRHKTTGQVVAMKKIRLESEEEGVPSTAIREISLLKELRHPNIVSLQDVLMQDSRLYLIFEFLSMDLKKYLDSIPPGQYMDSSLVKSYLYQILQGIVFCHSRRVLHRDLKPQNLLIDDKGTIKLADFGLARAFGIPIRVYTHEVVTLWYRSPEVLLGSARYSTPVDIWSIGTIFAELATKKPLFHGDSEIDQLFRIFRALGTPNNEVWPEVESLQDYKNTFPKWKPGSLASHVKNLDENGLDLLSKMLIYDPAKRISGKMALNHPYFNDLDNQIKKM
T3 sequence (P14635 whole entry partner): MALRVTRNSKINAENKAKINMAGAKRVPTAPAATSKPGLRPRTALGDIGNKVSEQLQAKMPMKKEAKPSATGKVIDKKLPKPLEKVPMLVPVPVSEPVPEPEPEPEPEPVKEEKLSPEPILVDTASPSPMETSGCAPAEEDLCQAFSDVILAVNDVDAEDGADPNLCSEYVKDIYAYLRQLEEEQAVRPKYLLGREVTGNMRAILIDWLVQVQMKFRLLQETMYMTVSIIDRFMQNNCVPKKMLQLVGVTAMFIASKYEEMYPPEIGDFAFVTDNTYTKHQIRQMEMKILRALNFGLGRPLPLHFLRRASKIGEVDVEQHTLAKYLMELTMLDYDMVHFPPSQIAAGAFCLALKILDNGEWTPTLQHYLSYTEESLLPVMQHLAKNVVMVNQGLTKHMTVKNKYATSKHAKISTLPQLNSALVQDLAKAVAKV
Method in brief: as §1

CK1-epsilon = target: T4, CK1-epsilon (Homo sapiens, UniProt P49674); details: read-out: Residual Activity (%)
T4 construct: purchased ProQinase
Method in brief: as §1

CK1-gamma2 = target: T5, CK1-gamma2 (Homo sapiens, UniProt P78368); details: CK1-gamma2, 1 µM; read-out: Residual Activity (%)
T5 construct: purchased ProQinase
Method in brief: as §1

CK2-alpha1 = target: T6, CK2-alpha1 (Homo sapiens, UniProt P68400); details: CK2-alpha1, 1 µM; read-out: Residual Activity (%)
T6 construct: purchased ProQinase
Method in brief: as §1

CSK = target: T7, CSK (Homo sapiens, UniProt P41240); details: read-out: Residual Activity (%)
T7 construct: purchased ProQinase
Method in brief: as §1

DAPK1 = target: T8, DAPK1 (Homo sapiens, UniProt P53355); details: DAPK1, 1 µM; read-out: Residual Activity (%)
T8 construct: purchased ProQinase
Method in brief: as §1

DAPK3 = target: T9, DAPK3 (Homo sapiens, UniProt O43293); details: DAPK3, 1 µM; read-out: Residual Activity (%)
T9 construct: purchased ProQinase
Method in brief: as §1

EPHB1 = target: T10, EPHB1 (Homo sapiens, UniProt P54762); details: EPHB1, 1 µM; read-out: Residual Activity (%)
T10 construct: purchased ProQinase
Method in brief: as §1

ERK1 = target: T11, ERK1 (Homo sapiens, UniProt P27361); details: ERK1, 1 µM; read-out: Residual Activity (%)
T11 construct: purchased ProQinase
Method in brief: as §1

ERK5 = target: T12, ERK5 (Homo sapiens, UniProt Q13164); details: ERK5, 1 µM; read-out: Residual Activity (%)
T12 construct: purchased ProQinase
Method in brief: as §1

IGF1-R = target: T13, IGF1-R (Homo sapiens, UniProt P08069); details: read-out: Residual Activity (%)
T13 construct: purchased ProQinase
Method in brief: as §1

JAK1 aa583-1154 wt = target: T14, JAK1 aa583-1154 wt (Homo sapiens, UniProt P23458); details: read-out: Residual Activity (%)
T14 construct: purchased ProQinase
Method in brief: as §1

KIT = target: T15, KIT (Homo sapiens, UniProt P10721); details: read-out: Residual Activity (%)
T15 construct: purchased ProQinase
Method in brief: as §1

LRRK2 = target: T16, LRRK2 (Homo sapiens, UniProt Q5S007); details: LRRK2, 1 µM; read-out: Residual Activity (%)
T16 construct: purchased ProQinase
T16 sequence (Q5S007 whole entry): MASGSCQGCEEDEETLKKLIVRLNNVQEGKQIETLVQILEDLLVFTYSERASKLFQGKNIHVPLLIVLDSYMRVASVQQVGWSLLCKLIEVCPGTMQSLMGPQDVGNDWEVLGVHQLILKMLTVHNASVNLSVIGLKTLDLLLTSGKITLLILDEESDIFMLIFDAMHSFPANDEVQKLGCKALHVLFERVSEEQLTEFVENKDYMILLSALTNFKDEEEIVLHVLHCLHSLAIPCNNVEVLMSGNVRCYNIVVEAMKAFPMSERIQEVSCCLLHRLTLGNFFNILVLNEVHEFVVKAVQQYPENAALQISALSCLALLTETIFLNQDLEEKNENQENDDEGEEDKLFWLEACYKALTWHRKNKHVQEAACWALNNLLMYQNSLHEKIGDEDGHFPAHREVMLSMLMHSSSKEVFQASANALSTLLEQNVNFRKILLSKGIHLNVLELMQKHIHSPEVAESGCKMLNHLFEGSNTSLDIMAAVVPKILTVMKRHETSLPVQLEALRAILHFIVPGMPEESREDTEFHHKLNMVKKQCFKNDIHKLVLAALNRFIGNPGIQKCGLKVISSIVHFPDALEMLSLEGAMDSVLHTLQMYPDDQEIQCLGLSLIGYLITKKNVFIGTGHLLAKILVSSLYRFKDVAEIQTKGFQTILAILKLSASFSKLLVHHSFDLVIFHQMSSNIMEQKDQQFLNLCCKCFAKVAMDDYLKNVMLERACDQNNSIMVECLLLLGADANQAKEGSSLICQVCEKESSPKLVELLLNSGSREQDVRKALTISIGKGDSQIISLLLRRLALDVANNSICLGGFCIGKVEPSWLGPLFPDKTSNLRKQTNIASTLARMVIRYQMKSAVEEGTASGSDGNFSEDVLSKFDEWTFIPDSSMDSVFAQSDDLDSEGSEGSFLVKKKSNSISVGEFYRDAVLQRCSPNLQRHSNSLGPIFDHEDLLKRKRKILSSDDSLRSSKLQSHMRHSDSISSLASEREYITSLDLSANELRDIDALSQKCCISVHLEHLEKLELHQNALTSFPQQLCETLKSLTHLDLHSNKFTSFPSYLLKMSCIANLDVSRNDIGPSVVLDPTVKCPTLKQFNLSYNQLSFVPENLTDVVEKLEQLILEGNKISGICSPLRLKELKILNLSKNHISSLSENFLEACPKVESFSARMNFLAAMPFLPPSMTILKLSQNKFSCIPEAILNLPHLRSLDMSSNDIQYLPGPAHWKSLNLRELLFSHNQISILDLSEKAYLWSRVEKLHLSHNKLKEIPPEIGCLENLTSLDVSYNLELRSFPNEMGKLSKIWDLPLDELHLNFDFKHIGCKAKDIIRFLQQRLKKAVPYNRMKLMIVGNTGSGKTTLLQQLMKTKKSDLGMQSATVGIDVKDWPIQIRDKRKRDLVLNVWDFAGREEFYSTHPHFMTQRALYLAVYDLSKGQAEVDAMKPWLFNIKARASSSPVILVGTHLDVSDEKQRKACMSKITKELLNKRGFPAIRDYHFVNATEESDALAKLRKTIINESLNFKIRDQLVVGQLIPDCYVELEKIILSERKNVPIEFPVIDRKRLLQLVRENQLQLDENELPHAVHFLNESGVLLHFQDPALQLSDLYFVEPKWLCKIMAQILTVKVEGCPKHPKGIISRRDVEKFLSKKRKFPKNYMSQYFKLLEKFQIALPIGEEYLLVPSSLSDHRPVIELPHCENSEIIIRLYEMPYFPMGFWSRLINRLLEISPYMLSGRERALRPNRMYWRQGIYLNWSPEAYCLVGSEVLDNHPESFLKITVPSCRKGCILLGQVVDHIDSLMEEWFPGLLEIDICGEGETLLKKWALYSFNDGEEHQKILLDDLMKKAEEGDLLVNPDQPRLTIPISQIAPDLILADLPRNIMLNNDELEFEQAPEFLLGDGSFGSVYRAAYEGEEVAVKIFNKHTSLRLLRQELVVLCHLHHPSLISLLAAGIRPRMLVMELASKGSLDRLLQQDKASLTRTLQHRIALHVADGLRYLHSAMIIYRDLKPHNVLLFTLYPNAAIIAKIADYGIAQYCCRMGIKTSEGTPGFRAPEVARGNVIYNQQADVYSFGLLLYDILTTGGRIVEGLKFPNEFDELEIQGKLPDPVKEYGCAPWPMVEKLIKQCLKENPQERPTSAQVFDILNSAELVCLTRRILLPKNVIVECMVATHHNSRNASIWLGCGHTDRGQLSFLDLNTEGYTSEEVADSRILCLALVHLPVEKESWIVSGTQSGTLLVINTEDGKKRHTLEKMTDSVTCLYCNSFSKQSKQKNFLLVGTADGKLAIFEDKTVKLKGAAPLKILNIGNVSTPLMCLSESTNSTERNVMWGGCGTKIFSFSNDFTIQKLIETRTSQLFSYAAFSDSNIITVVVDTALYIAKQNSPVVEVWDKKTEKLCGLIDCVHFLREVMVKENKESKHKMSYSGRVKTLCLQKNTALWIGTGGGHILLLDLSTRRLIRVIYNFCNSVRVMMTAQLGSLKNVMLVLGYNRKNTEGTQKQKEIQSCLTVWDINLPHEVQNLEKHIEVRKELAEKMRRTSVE
Method in brief: as §1

MAPKAPK5 = target: T17, MAPKAPK5 (Homo sapiens, UniProt Q8IW41); details: MAPKAPK5, 1 µM; read-out: Residual Activity (%)
T17 construct: purchased ProQinase
Method in brief: as §1

MET = target: T18, MET (Homo sapiens, UniProt P08581); details: read-out: Residual Activity (%)
T18 construct: purchased ProQinase
Method in brief: as §1

PAK2 = target: T19, PAK2 (Homo sapiens, UniProt Q13177); details: PAK2, 1 µM; read-out: Residual Activity (%)
T19 construct: purchased ProQinase
Method in brief: as §1

PAK4 = target: T20, PAK4 (Homo sapiens, UniProt O96013); details: PAK4, 1 µM; read-out: Residual Activity (%)
T20 construct: purchased ProQinase
Method in brief: as §1

PDGFR-beta = target: T21, PDGFR-beta (Homo sapiens, UniProt P09619); details: read-out: Residual Activity (%)
T21 construct: purchased ProQinase
Method in brief: as §1

PDK1 = target: T22, PDK1 (Homo sapiens, UniProt O15530); details: PDK1, 1 µM; read-out: Residual Activity (%)
T22 construct: purchased ProQinase
Method in brief: as §1

PKC-iota = target: T23, PKC-iota (Homo sapiens, UniProt P41743); details: read-out: Residual Activity (%)
T23 construct: purchased ProQinase
Method in brief: as §1

PKC-mu = target: T24, PKC-mu (Homo sapiens, UniProt Q15139); details: read-out: Residual Activity (%)
T24 construct: purchased ProQinase
Method in brief: as §1

RET = target: T25, RET (Homo sapiens, UniProt P07949); details: read-out: Residual Activity (%)
T25 construct: purchased ProQinase
T25 sequence (P07949 29-1114): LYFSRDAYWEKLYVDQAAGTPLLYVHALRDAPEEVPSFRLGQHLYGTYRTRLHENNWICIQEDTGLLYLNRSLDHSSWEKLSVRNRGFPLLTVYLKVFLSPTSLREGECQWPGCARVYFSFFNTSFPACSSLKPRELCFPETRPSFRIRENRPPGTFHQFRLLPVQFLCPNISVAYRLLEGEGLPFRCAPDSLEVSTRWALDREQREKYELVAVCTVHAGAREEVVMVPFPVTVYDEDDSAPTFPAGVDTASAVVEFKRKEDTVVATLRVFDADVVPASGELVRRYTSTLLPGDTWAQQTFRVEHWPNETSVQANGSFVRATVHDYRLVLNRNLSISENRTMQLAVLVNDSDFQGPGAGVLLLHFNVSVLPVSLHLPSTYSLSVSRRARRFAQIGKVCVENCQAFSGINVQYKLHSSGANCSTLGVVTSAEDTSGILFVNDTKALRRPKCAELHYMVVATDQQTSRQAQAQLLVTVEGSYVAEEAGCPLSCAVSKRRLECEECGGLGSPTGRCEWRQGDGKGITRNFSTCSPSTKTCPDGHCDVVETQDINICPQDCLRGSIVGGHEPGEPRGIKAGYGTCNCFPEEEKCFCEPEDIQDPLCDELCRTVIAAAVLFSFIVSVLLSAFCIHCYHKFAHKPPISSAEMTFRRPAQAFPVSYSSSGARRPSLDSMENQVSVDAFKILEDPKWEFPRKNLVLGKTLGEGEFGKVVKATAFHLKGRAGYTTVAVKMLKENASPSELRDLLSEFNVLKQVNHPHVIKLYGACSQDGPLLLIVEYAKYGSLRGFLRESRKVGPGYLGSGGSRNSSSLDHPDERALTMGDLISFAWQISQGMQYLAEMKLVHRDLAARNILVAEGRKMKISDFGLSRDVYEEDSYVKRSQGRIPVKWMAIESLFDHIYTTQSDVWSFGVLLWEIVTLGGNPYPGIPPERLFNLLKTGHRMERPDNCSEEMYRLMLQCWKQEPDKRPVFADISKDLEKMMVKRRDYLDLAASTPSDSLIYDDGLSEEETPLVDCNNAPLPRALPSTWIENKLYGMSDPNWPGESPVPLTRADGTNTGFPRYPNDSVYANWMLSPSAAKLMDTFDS
Method in brief: as §1

RPS6KA5 = target: T26, RPS6KA5 (Homo sapiens, UniProt O75582); details: RPS6KA5, 1 µM; read-out: Residual Activity (%)
T26 construct: purchased ProQinase
Method in brief: as §1

SIK1 = target: T27, SIK1 (Homo sapiens, UniProt P57059); details: SIK1, 1 µM; read-out: Residual Activity (%)
T27 construct: purchased ProQinase
Method in brief: as §1

TSSK1 = target: T28, TSSK1 (Homo sapiens, UniProt Q9BXA7); details: TSSK1, 1 µM; read-out: Residual Activity (%)
T28 construct: purchased ProQinase
Method in brief: as §1

TYRO3 = target: T29, TYRO3 (Homo sapiens, UniProt Q06418); details: TYRO3, 1 µM; read-out: Residual Activity (%)
T29 construct: purchased ProQinase
Method in brief: as §1

WEE1 = target: T30, WEE1 (Homo sapiens, UniProt P30291); details: WEE1, 1 µM; read-out: Residual Activity (%)
T30 construct: purchased ProQinase
Method in brief: as §1

T1 sequence (P36896 24-505): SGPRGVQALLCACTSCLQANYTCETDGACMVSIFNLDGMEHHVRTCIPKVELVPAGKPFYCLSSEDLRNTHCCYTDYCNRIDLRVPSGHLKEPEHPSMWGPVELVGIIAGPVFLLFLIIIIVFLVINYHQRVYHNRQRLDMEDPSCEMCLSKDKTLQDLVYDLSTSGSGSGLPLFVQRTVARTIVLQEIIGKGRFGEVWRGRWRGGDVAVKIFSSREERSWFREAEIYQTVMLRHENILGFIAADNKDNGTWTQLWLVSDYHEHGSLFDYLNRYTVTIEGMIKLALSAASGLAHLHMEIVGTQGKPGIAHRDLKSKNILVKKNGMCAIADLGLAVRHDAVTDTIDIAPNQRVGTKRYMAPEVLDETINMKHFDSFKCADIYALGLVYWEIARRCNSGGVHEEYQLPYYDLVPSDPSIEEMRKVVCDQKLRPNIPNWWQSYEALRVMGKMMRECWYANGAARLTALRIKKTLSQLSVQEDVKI

Compound COc1ccc(-c2cc(C(=O)Nc3cc(-c4c(-c5ccc(F)cc5)noc4C(C)C)ccn3)n(CC3NCC(O)C3O)c2)cc1 (stereo not drawn) [29d] has a remaining activity at 1 µM (ACV-R1B) of 103%, a remaining activity at 1 µM (CDC42BPA) of 100% and a remaining activity at 1 µM (CDK1/CycB1) of 107%. It also gave a remaining activity at 1 µM (CK1-epsilon) of 4%, a remaining activity at 1 µM (CK1-gamma2) of 80% and a remaining activity at 1 µM (CK2-alpha1) of 103%. The remaining activity at 1 µM (CSK) was 115%, the remaining activity at 1 µM (DAPK1) was 101% and the remaining activity at 1 µM (DAPK3) was 90%. It also gave a remaining activity at 1 µM (EPHB1) of 108%, a remaining activity at 1 µM (ERK1) of 102% and a remaining activity at 1 µM (ERK5) of 93%. It also gave a remaining activity at 1 µM (IGF1-R) of 104%, a remaining activity at 1 µM (JAK1 aa583-1154 wt) of 104% and a remaining activity at 1 µM (KIT) of 102%. It also gave a remaining activity at 1 µM (LRRK2) of 100%, a remaining activity at 1 µM (MAPKAPK5) of 110% and a remaining activity at 1 µM (MET) of 89%. The remaining activity at 1 µM (PAK2) was 107%, the remaining activity at 1 µM (PAK4) was 92% and the remaining activity at 1 µM (PDGFR-beta) was 91%. For the same compound, the remaining activity at 1 µM (PDK1) was 93%, the remaining activity at 1 µM (PKC-iota) was 88% and the remaining activity at 1 µM (PKC-mu) was 94%. The remaining activity at 1 µM (RET) was 97%, the remaining activity at 1 µM (RPS6KA5) was 101% and the remaining activity at 1 µM (SIK1) was 92%. For the same compound, the remaining activity at 1 µM (TSSK1) was 109%, the remaining activity at 1 µM (TYRO3) was 115% and the remaining activity at 1 µM (WEE1) was 95%.
